Assay results as given in BindingDB's records for doi:10.1016/j.chembiol.2015.10.013 (Pfizer, 2015).
pIC50, pKd: −log10 of the molar value.

Tests used:
CREB-binding protein [1] = biological target: T1, CREB-binding protein (Homo sapiens, UniProt Q92793); assay: CBP Fluorescence Resonance Energy Transfer (FRET)
[2] = biological target: T2, Bromodomain-containing protein 4 (Homo sapiens, UniProt O60885); assay: BRD4 Fluorescence Polarization (FP)
CREB-binding protein [3] = biological target: T1, CREB-binding protein; assay: ITC
[4] = biological target: T2, Bromodomain-containing protein 4; assay: ITC

T1 sequence (Q92793 whole entry): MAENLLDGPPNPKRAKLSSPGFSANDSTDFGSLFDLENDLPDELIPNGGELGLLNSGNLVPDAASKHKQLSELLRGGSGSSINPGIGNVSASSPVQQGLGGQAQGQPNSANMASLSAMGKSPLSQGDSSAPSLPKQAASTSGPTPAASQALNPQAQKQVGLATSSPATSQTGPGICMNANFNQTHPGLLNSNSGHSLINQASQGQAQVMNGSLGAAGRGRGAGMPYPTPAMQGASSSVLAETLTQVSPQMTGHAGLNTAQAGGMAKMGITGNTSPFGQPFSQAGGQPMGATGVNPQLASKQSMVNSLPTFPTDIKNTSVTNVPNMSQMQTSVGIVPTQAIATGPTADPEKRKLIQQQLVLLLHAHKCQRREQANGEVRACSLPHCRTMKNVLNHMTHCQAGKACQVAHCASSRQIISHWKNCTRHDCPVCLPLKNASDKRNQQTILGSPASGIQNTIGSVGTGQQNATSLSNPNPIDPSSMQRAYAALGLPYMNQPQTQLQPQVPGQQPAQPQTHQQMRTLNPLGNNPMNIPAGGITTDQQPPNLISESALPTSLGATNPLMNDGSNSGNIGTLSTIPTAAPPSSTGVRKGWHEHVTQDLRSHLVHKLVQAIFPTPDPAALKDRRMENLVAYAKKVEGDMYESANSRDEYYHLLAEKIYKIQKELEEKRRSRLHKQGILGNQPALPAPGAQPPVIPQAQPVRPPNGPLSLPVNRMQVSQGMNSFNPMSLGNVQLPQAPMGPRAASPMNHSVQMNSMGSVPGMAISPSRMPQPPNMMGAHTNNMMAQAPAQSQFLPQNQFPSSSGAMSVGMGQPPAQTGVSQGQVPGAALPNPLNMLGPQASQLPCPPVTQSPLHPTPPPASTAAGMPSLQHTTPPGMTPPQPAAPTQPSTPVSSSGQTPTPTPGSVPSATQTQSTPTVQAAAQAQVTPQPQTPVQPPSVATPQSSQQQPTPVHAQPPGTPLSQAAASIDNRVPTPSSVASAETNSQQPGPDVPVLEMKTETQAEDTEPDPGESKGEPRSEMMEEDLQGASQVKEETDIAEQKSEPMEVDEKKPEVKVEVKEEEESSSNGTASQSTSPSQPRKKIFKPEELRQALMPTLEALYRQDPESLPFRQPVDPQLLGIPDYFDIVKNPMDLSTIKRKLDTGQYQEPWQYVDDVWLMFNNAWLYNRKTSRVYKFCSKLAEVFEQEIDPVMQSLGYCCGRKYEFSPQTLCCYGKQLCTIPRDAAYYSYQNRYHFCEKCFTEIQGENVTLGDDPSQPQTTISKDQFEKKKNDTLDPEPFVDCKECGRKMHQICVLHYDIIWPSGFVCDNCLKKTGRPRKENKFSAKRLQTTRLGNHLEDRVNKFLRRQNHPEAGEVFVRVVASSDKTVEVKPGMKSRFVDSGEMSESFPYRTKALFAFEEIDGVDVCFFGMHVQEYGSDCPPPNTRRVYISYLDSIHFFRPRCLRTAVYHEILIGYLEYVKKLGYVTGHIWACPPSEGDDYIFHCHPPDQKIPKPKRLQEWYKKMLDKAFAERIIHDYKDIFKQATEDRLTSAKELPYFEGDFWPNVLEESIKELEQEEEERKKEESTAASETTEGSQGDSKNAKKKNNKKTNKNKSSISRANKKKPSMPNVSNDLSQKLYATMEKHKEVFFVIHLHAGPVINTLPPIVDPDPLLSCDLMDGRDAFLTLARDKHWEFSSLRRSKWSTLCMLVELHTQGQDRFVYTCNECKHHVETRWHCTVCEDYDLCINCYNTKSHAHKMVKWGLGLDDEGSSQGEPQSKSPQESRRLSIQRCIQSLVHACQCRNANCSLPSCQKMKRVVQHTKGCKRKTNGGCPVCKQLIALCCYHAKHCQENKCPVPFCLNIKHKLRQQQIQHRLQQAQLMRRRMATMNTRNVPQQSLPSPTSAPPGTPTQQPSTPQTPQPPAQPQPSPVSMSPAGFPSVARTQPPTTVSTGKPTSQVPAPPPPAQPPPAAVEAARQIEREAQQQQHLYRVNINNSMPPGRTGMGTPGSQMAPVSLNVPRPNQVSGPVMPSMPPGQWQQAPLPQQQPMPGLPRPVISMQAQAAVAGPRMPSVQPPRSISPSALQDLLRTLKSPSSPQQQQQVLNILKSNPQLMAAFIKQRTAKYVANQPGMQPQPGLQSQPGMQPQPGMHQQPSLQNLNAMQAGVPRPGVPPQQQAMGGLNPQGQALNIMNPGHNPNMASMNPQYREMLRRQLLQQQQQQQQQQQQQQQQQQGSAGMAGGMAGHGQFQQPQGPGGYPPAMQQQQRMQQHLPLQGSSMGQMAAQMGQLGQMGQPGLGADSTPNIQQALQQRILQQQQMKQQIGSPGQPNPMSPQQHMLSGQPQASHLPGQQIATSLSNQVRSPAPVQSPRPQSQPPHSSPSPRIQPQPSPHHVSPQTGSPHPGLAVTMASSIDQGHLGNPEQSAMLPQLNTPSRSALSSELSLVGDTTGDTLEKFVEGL

Row | Structure (SMILES) | pIC50 (CREB-binding protein [1]) | pIC50 [2] | pKd (CREB-binding protein [3]) | pKd [4]
1 | CCCOc1ccc(CCc2nc3cc(-c4c(C)noc4C)ccc3n2CCN2CCOCC2)cc1 [PF-CBP1] | 6.89 | 4.74 | 6.72 | < 4.70
2 | COc1ccc(CCc2nc3c(C)c(-c4c(C)noc4C)c(C)cc3n2CCN2CCOCC2)cc1 [ISOX-INACT] | 4.97 | < 3.92 | – | –
